One series relates to Coxsackievirus B3-H3. In words: microbe, parasite or virus in culture. The format is cell-based. Particulars: read-out: EC50 CVB3-H3.
A further series has as its system Coxsackievirus B5. As to the kind of experiment: microbe, parasite or virus in culture. The format is cell-based. Particulars: read-out: EC50 CVB5.
Another series concerns Echovirus 7. As to the kind of experiment: microbe, parasite or virus in culture. The format is cell-based. Particulars: read-out: EC50 ECHO07.
The test system of a further series is Coxsackievirus B2. In words: microbe, parasite or virus in culture. The following applies: read-out: EC50 CVB2. The format is cell-based.
For another series, the system named is Poliovirus 1. As to the kind of experiment: microbe, parasite or virus in culture. The format is cell-based. The following applies: read-out: EC50 PV1.
In a further series the test system is Enterovirus 71. As to the kind of experiment: microbe, parasite or virus in culture. The format is cell-based. Particulars: read-out: EC50 EV71.
In the next series the test system is Coxsackievirus B4. As to the kind of experiment: microbe, parasite or virus in culture. The format is cell-based. Particulars: read-out: EC50 CVB4.
The subject of a further series is Echovirus 11. In words: microbe, parasite or virus in culture. The format is cell-based. Particulars: read-out: EC50 ECHO11.
For another series, the system named is Echovirus 30. As to the kind of experiment: microbe, parasite or virus in culture. The format is cell-based. Particulars: read-out: EC50 ECHO30.
Another series has as its system Coxsackievirus B1. As to the kind of experiment: microbe, parasite or virus in culture. The format is cell-based. The following applies: read-out: EC50 CVB1.
A further series concerns Poliovirus 3. As to the kind of experiment: microbe, parasite or virus in culture. The format is cell-based. The following applies: read-out: EC50 PV3.
A further series concerns Coxsackievirus A9. In words: microbe, parasite or virus in culture. The format is cell-based. The following applies: read-out: EC50 COX A9.
The next series concerns Echovirus 9. In words: microbe, parasite or virus in culture. The format is cell-based. Particulars: read-out: EC50 ECHO09.
A further series has as its system Echovirus 6. As to the kind of experiment: microbe, parasite or virus in culture. The format is cell-based. Particulars: read-out: EC50 ECHO06.
A further series relates to Echovirus 25. As to the kind of experiment: microbe, parasite or virus in culture. The format is cell-based. The following applies: read-out: EC50 ECHO25.
Another series has as its system Japanese Encephalitis. The format is cell-based.
A further series has as its system Rift Valley virus. In words: organism not typed. The format is cell-based. The following applies: read-out: EC50 Rift Valley virus.
In the next series the test system is Influenza A H1N1. As to the kind of experiment: microbe, parasite or virus in culture. The format is cell-based. The following applies: read-out: EC50 Influenza A H1N1.
A further series concerns Powassan. The format is cell-based, Powassan virus.
The test system of another series is Venezuelan Encephalitis. The format is cell-based, Venezuelan encephalitis virus.
Another series has as its system SARS Coronavirus. The format is cell-based.
In the next series the test system is Vero. The following applies: read-out: CC50 (Yellow Fever Virus test).
The next series concerns BHK. The following applies: read-out: CC50 (Powassan test).
Series [1] relates to Enterovirus D68/US/KY/14-18953. In words: Antiviral assay, Enterovirus D68 strain US/KY/14-18953 in RD cells. The format is cell-based.
In another series the test system is Punta Toro virus. In words: microbe, parasite or virus in culture. The format is cell-based. The following applies: read-out: EC50 Punta Toro virus.
The test system of another series is Measles. As to the kind of experiment: microbe, parasite or virus in culture. Particulars: read-out: EC50 Measles. The format is cell-based.
The test system of another series is BHK-21. The following applies: read-out: CC50 (Rabies test).
Series [2] deals with Enterovirus D68/US/Mo/14-18949. In words: Antiviral assay, Enterovirus D68 strain US/Mo/14-18949 in RD cells. The format is cell-based.
The next series deals with Chikungunya. The format is cell-based, chikungunya virus.
In the next series the test system is Rabies. The format is cell-based, rabies virus.
In series [3] the test system is RSV (resp syncitial virus). In words: microbe, parasite or virus in culture. The format is cell-based. The following applies: read-out: EC50 RSV.
Another series deals with Yellow Fever Virus. As to the kind of experiment: microbe, parasite or virus in culture. The format is cell-based. The following applies: read-out: EC50 Yellow Fever Virus.
The test system of a further series is Enterovirus D68/Fermon. In words: Antiviral assay, Enterovirus D68 strain Fermon in RD cells. The format is cell-based.

Among the data in patent publication US11787799B2 (priority 2015, dated 2023) are EC50 and CC50 values, retold here.

For orientation: EC50 means the midpoint of the concentration-response curve.

The structures appear in SMILES notation. Like-named read-outs stand apart in the source and are kept apart here.

As to `CNS(=O)(=O)c1cccc(NC(=O)c2cc(-c3cccs3)nc3c2cnn3C(C)C)c1` [JX-053], the EC50 with Coxsackievirus B3-H3 was 0.6 µM; in the series on Coxsackievirus B5 it was 0.6 µM; in the series with Echovirus 7, 0.45 µM; with Coxsackievirus B2 it was 0.6 µM; in the series on Poliovirus 1 it was above 10 µM; in the series with Enterovirus 71, 0.7 ± 0.1 µM. Also, the EC50 with Coxsackievirus B4 is 0.6 µM; with Echovirus 11, 0.6 µM; in the series on Echovirus 30, 0.6 µM; in the series with Coxsackievirus B1 it was 0.6 µM; in the series with Poliovirus 3, above 10 µM; in the series with Coxsackievirus A9, 0.8 µM. The 50% effective concentration (EC50) in the series with Echovirus 9 is 0.2 µM. Moreover, the results for the CC50 in the series on HeLa-RW cells and in the series on LLC cells were 12 µM and 25 µM, respectively.

In the case of `CC(C)n1ncc2c(C(=O)Nc3ncccn3)cc(-c3cccs3)nc21` [JX-041], the half-maximal effective concentration (EC50) in the series on Coxsackievirus B3-H3 was 0.6 µM; in the series on Coxsackievirus B5, 0.6 µM; in the series on Echovirus 7, 0.7 µM; in the series on Coxsackievirus B2, 0.6 µM; with Poliovirus 1, above 10 µM; with Enterovirus 71, 0.5 ± 0.1 µM. Moreover, the EC50 is 0.6 µM in the series with Coxsackievirus B4; 0.6 µM in the series with Echovirus 11; 0.4 µM in the series on Echovirus 6; below 0.4 µM in the series with Echovirus 30; 0.6 µM with Coxsackievirus B1; above 10 µM in the series on Poliovirus 3. Besides, the EC50 in the series on Echovirus 25 and with Coxsackievirus A9 was 0.6 µM in each case. Further, the CC50 came out at 37.5 µM in the series with HeLa-RW cells and 75 µM in the series with LLC cells.

`CC(C)n1ncc2c(C(=O)Nc3ccc(F)cc3)cc(-c3ccsc3)nc21` [JX-030]: the EC50 in the series on Coxsackievirus B3-H3 came out at 1.3 ± 0.1 µM; with Coxsackievirus B5, 1.2 ± 0.1 µM; in the series on Echovirus 7, 2.6 ± 0.1 µM; with Japanese Encephalitis it was 3.4 µM; in the series with Rift Valley virus it was 140 µM; with Influenza A H1N1, 10.7 µM. Further, the EC50 with Powassan was above 85.8 µM; with Venezuelan Encephalitis, above 9.4 µM; with SARS Coronavirus, 4.4 µM; with Coxsackievirus B2, 1.6 ± 0.1 µM; with Poliovirus 1, above 25 µM; in the series with Enterovirus 71, 1.4 ± 0.2 µM. Besides, the concentration for a half-maximal effect (EC50) in the series on Coxsackievirus B4 was 2.2 ± 0.1 µM; in series [1], 0.6 µM; in the series on Punta Toro virus it was above 78 µM; in the series on Measles, 20.5 µM; in the series on Echovirus 6, 1.2 ± 0.1 µM; in the series with Echovirus 30, 0.6 µM. The EC50 is 1.6 ± 0.1 µM in the series on Coxsackievirus B1; 0.3 µM in series [2]; above 1.3 µM with Chikungunya; 88.4 µM with Rabies; above 25 µM in the series on Poliovirus 3; 7 µM in series [3]. In addition, the EC50 was 0.9 µM in the series on Echovirus 25, 1.7 ± 0.1 µM in the series with Coxsackievirus A9, 1.9 µM in the series with Echovirus 9 and above 11.1 µM in the series with Yellow Fever Virus. The CC50 with HeLa-RW cells is 25 µM; with Vero, 11.1 µM; in the series on BHK it was above 85.8 µM; with MA-104 it was 67.6 µM; with BHK-21, above 260 µM; in the series with LLC cells, above 100 µM. In addition, the CC50 worked out at 169 µM in the series with Vero 76 (read-out: CC50 (Rift Valley virus test), with Rift Valley virus MP-12 test); 18.7 µM with Vero 76 (read-out: CC50 (SARS Coronavirus test), with SARS Coronavirus Urbani test); 25 µM with RD cells; 17.7 µM in the series on MDCK.

For `CC(C)n1ncc2c(C(=O)N(C)c3ccccn3)cc(-c3cccs3)nc21` [JX-074], the EC50 in the series with Coxsackievirus B3-H3, in the series with Coxsackievirus B5, in the series with Echovirus 7, in the series on Coxsackievirus B2, with Poliovirus 1 and with Enterovirus 71 was above 10 µM each time. The half-maximal effective concentration (EC50) in the series on Coxsackievirus B4, in the series with Echovirus 11, in the series with Echovirus 6, in the series on Echovirus 30, with Coxsackievirus B1 and in the series with Poliovirus 3 was above 10 µM throughout. Also, the EC50 with Echovirus 25, with Coxsackievirus A9 and with Echovirus 9 was above 10 µM throughout.

Consider `CC(C)n1ncc2c(C(=O)Nc3cccnc3)cc(-c3cccs3)nc21` [JX-056], for which the EC50 was 0.6 µM in the series with Coxsackievirus B3-H3; 0.6 µM with Coxsackievirus B5; 0.45 µM in the series on Echovirus 7; 0.6 µM with Coxsackievirus B2; 10 µM with Poliovirus 1; 0.5 ± 0.1 µM with Enterovirus 71. Moreover, the EC50 was 0.6 µM with Coxsackievirus B4; 0.12 µM in [1]; below 0.1 µM in the series on Enterovirus D68/Fermon; 0.2 µM with Echovirus 11; 0.3 µM in the series on Echovirus 30; 0.6 µM in the series with Coxsackievirus B1. Moreover, the concentration for a half-maximal effect (EC50) was below 0.1 µM in [2], 10 µM with Poliovirus 3, 0.6 µM in the series on Coxsackievirus A9 and 0.2 µM with Echovirus 9. In addition, the figures for the CC50 with HeLa-RW cells, in the series with LLC cells and in the series on RD cells were 25 µM, above 200 µM and 25 µM, respectively.

Regarding `CC(C)n1ncc2c(C(=S)Nc3ccc(F)cc3)cc(-c3cccs3)nc21` [JX-046], the concentration giving a half-maximal response (EC50) in the series on Echovirus 7 is above 10 µM; with Enterovirus 71, above 10 µM; in the series with Echovirus 11 it was above 10 µM; in the series with Echovirus 6, above 10 µM; with Echovirus 30 it was 6.25 µM; in the series with Echovirus 25, above 10 µM. The EC50 with Coxsackievirus A9 and in the series on Echovirus 9 was above 10 µM throughout. This compound registered a CC50 in the series with LLC cells of 20 µM.

For `CC(C)n1ncc2c(C(=O)Nc3ccccn3)cc(-c3cccs3)nc21` [JX-040], the EC50 with Coxsackievirus B3-H3 is 0.6 µM; with Coxsackievirus B5 it was 0.6 µM; in the series with Echovirus 7 it was 0.6 µM; with Coxsackievirus B2 it was 0.6 µM; in the series with Poliovirus 1, above 10 µM; with Enterovirus 71, 0.5 ± 0.1 µM. The EC50 with Coxsackievirus B4 is 0.5 µM; in series [1] it was 0.27 ± 0.06 µM; with Echovirus 11, 0.5 µM; with Echovirus 6 it was 0.4 µM; with Echovirus 30 it was below 0.4 µM; with Coxsackievirus B1, 0.6 µM. For the same compound, the EC50 in [2] was 0.17 ± 0.03 µM; in the series with Poliovirus 3, above 10 µM; in the series on Echovirus 25, 0.6 µM; with Coxsackievirus A9, 0.6 µM. The CC50 in the series with HeLa-RW cells, in the series on LLC cells and with RD cells was above 200 µM throughout.

On to `CC(C)n1ncc2c(C(=O)Nc3cccc(S(=O)(=O)N(C)C)c3)cc(-c3cccs3)nc21` [JX-052], for which the EC50 is 1.2 µM in the series with Coxsackievirus B3-H3; 1.2 µM in the series on Coxsackievirus B5; 0.78 µM in the series with Echovirus 7; 1.2 µM in the series with Coxsackievirus B2; above 10 µM with Poliovirus 1; 0.8 ± 0.1 µM with Enterovirus 71. Further, the EC50 stood at 1.2 µM in the series with Coxsackievirus B4; 0.53 ± 0.29 µM in series [1]; 0.57 ± 0.25 µM in the series with Enterovirus D68/Fermon; 0.6 µM in the series with Echovirus 11; 0.4 µM in the series with Echovirus 30; 1.2 µM in the series with Coxsackievirus B1. Moreover, the EC50 in [2] was 0.31 ± 0.07 µM; with Poliovirus 3, above 10 µM; with Coxsackievirus A9 it was 0.8 µM; in the series on Echovirus 9, 0.2 µM. Besides, the CC50 was 12 µM in the series on HeLa-RW cells, above 200 µM in the series on LLC cells and above 200 µM in the series with RD cells.
